Target: MMP-9 (Homo sapiens, UniProt P14780)
Test: MMP-9 inhibition assay (internally quenched fluorescent peptide substrate)
Assay type: biochemical
Conditions: 1 μM; purified MMP-9 enzyme, incubation at 37 C
Experimental: Each of the compounds of Examples 5-12 were assayed for their efficacy as MMP-9 inhibitors. The assay for MMP-9 inhibitors was performed by mixing purified MMP-9 enzyme with assay buffer, substrate, and compound to be tested. The substrate is an internally quenched fluorescent peptide that becomes unquenched upon cleavage by MMP-9 enzyme. After incubation at 37 C., the assay is stopped by addition of EDTA solution and the fluorescence is measured. The fluorescence is directly proportional to enzyme activity. A compound that is an inhibitor of MMP-9 activity will reduce the resultant fluorescent values.

Chain of MMP-9 (P14780 94-707, species assumed): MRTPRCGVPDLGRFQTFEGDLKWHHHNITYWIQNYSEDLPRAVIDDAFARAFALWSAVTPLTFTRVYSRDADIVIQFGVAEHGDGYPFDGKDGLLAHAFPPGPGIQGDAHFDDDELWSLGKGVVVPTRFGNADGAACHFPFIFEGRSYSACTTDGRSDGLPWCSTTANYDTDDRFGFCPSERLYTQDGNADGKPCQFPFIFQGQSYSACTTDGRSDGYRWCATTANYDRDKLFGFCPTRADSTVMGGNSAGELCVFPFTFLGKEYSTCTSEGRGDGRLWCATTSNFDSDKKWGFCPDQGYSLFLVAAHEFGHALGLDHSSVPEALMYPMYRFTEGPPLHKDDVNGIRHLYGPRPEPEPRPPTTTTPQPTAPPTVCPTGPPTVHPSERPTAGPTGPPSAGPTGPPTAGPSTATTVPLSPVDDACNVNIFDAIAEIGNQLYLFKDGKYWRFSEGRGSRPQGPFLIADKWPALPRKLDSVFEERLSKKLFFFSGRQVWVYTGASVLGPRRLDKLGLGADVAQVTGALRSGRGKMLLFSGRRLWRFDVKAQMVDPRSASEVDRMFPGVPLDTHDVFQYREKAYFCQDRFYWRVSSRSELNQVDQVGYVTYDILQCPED

inhibition at 1 µM [%] | Compound
52 | COc1ccc(S(=O)(=O)N(CCc2cccc(Cl)c2)CC(=O)N2CC(=O)N(Cc3ccc(F)cc3)CC2CC(=O)NO)cc1 (stereo not drawn) [Example 4, 2-{1-[N-(3-Chlorophenethyl)-N-(4-methoxybenzenesufonyl)-aminoacetyl]-4-(4-fluorobenzyl)-5-oxo-piperazin-2-yl}-N-hydroxy-acetamide]
42 | COc1ccc(CCN(CC(=O)N2CC(=O)N(Cc3ccc(F)cc3)CC2CC(=O)NO)S(=O)(=O)c2ccc(OC)cc2)cc1 (stereo not drawn) [Example 5, 2-{4-(4-fluorobenzyl)-1-[N-(4-methoxybenzenesufonyl)-N-(4-methoxyphenethyl)-aminoacetyl]-5-oxo-piperazin-2-yl}-N-hydroxy-acetamide]
62 | COc1ccc(S(=O)(=O)N(CCc2cccc(Cl)c2)CC(=O)N2CC(=O)N(Cc3cc(OC)cc(OC)c3)CC2CC(=O)NO)cc1 (stereo not drawn) [Example 7, 2-{1-[N-(3-Chlorophenethyl)-N-(4-methoxybenzenesufonyl)-aminoacetyl]-4-(3,5-dimethoxybenzyl)-5-oxo-piperazin-2-yl}-N-hydroxy-acetamide]
35 | COc1ccc(CCN(CC(=O)N2CC(=O)N(Cc3cc(OC)cc(OC)c3)CC2CC(=O)NO)S(=O)(=O)c2ccc(OC)cc2)cc1 (stereo not drawn) [Example 8, 2-{4-(3,5-Dimethoxybenzyl)-1-[N-(4-methoxybenzenesufonyl)-N-(4-methoxyphenethyl)-aminoacetyl]-5-oxo-piperazin-2-yl}-N-hydroxy-acetamide]

Same assay, conditions: purified MMP-9 enzyme, incubation at 37 C

IC50 [nM] | Compound
50 | COc1ccc(S(=O)(=O)N(CCc2cccc(Cl)c2)CC(=O)N2C(CC(=O)NO)CN(Cc3ccc(F)cc3)C(=O)[C@@H]2C)cc1 (single isomer, unassigned) [3A (isomer A)]
53 | COc1ccc(S(=O)(=O)N(CCc2cccc(Cl)c2)CC(=O)N2C(CC(=O)NO)CN(Cc3ccc(F)cc3)C(=O)[C@@H]2C)cc1 (single isomer, unassigned) [3B (isomer B)]
100 | COc1ccc(CCN(CC(=O)N2C(CC(=O)NO)CN(Cc3ccc(F)cc3)C(=O)[C@@H]2C)S(=O)(=O)c2ccc(OC)cc2)cc1 (stereo partly drawn) [Example 6, 2-{4-(4-Fluorobenzyl)-1-[N-(4-methoxybenzenesufonyl)-N-(4-methoxyphenethyl)-aminoacetyl]-6-(S)-methyl-5-oxo-piperazin-2-yl}-N-hydroxy-acetamide]
120 | COc1ccc(S(=O)(=O)N(CCc2cccc(Cl)c2)CC(=O)N2C(CC(=O)NO)CN(Cc3cc(OC)cc(OC)c3)C(=O)[C@@H]2C)cc1 (stereo partly drawn) [Example 9, 2-{1-[N-(3-Chlorophenethyl)-N-(4-methoxybenzenesufonyl)-aminoacetyl]4-(3,5-dimethoxybenzyl)-6-(S)-methyl-5-oxo-piperazin-2-yl}-N-hydroxy-acetamide]
150 | COc1ccc(CCN(CC(=O)N2C(CC(=O)NO)CN(Cc3cc(OC)cc(OC)c3)C(=O)[C@@H]2C)S(=O)(=O)c2ccc(OC)cc2)cc1 (stereo partly drawn) [Example 10, 2-{4-(3,5-dimethoxybenzyl)-1-[N-(4-methoxybenzenesufonyl)-N-(4-methoxyphenethyl)-aminoacetyl]-6-(S)-methyl-5-oxo-piperazin-2-yl}-N-hydroxy-acetamide]
